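Values below derive from 48-hour exposures of cells grown in 96-well plates, with endpoints linearly interpolated between the two concentrations bracketing the appropriate inhibition level. GI50 marks 50% less growth.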 Calls of active or inactive are those of the source. Cut-off read from the data, not from the text of the source: active = GI50 up to about 1.1 µM and inactive = higher.
Columns and labels:
Experiment in all cases: growth of human tumour cells (NCI), 48 h
[1] = test system: UO-31
[2] = test system: M14
[3] = test system: IGROV-1
[4] = test system: OVCAR-8
[5] = test system: UACC-62
[6] = test system: HT-29
[7] = test system: SK-OV-3
[8] = test system: SK-MEL-2
[9] = test system: SF-295
[10] = test system: LOX IMVI
[11] = test system: NCI-H226
[12] = test system: SN12C
[13] = test system: T47D
[14] = test system: MDA-MB-435
[15] = test system: HOP-62
[16] = test system: SR
[17] = test system: U-251
[18] = test system: SNB-75
[19] = test system: SNB-19
[20] = test system: UACC-257

SMILES	GI50 [1]	GI50 [2]	GI50 [3]	GI50 [4]	GI50 [5]	GI50 [6]	GI50 [7]	GI50 [8]	GI50 [9]	GI50 [10]	GI50 [11]	GI50 [12]	GI50 [13]	GI50 [14]	GI50 [15]	GI50 [16]	GI50 [17]	GI50 [18]	GI50 [19]	GI50 [20]
COC(=O)c1sc2c(=O)c(C(=O)OC)c(C(=O)OC)sc2c(=O)c1C(=O)OC	> 100 µM (inactive)	> 100 µM (inactive)	> 67.8 µM (inactive)	> 100 µM (inactive)	> 100 µM (inactive)	> 100 µM (inactive)	> 100 µM (inactive)	> 85.9 µM (inactive)	> 100 µM (inactive)	73.3 µM (inactive)	> 100 µM (inactive)	> 100 µM (inactive)	> 100 µM (inactive)	> 100 µM (inactive)	> 100 µM (inactive)	37.8 µM (inactive)	> 80.9 µM (inactive)	> 100 µM (inactive)	> 100 µM (inactive)	> 100 µM (inactive)
CC1(C)C(O)c2ccccc2OC1N1CCN(C2Oc3ccccc3C(O)C2(C)C)CC1 (stereo not given)	> 100 µM (inactive)	> 100 µM (inactive)	> 100 µM (inactive)	> 100 µM (inactive)	> 100 µM (inactive)	> 100 µM (inactive)	> 100 µM (inactive)	–	> 100 µM (inactive)	> 100 µM (inactive)	> 100 µM (inactive)	> 100 µM (inactive)	> 100 µM (inactive)	> 100 µM (inactive)	> 100 µM (inactive)	> 100 µM (inactive)	> 100 µM (inactive)	> 100 µM (inactive)	> 100 µM (inactive)	> 100 µM (inactive)
O=C1NNC(=O)c2ccccc2SSc2ccccc2C(=O)NNC(=O)c2ccccc2SSc2ccccc21	3.39 µM (inactive)	24.4 µM (inactive)	9.25 µM (inactive)	12.5 µM (inactive)	16.7 µM (inactive)	16.7 µM (inactive)	23.3 µM (inactive)	26.8 µM (inactive)	2.45 µM (inactive)	12 µM (inactive)	> 50 µM (inactive)	12.9 µM (inactive)	28.8 µM (inactive)	39 µM (inactive)	21.4 µM (inactive)	2.55 µM (inactive)	17.3 µM (inactive)	40.1 µM (inactive)	25.9 µM (inactive)	19.9 µM (inactive)
Nc1nc(O)c(N)c(NCCOCP(=O)(O)O)n1	> 100 µM (inactive)	> 100 µM (inactive)	> 100 µM (inactive)	> 100 µM (inactive)	> 57.1 µM (inactive)	> 100 µM (inactive)	> 100 µM (inactive)	> 100 µM (inactive)	> 100 µM (inactive)	> 100 µM (inactive)	> 100 µM (inactive)	> 100 µM (inactive)	> 100 µM (inactive)	> 100 µM (inactive)	> 100 µM (inactive)	> 100 µM (inactive)	> 100 µM (inactive)	> 65.6 µM (inactive)	> 100 µM (inactive)	> 100 µM (inactive)
CCOC(=O)c1sc2ncnc(N)c2c1C	82.4 µM (inactive)	65 µM (inactive)	22.1 µM (inactive)	35 µM (inactive)	35.3 µM (inactive)	18.2 µM (inactive)	> 100 µM (inactive)	> 100 µM (inactive)	79.4 µM (inactive)	43.8 µM (inactive)	75.5 µM (inactive)	21.4 µM (inactive)	24.2 µM (inactive)	36 µM (inactive)	80 µM (inactive)	24.8 µM (inactive)	> 100 µM (inactive)	35.1 µM (inactive)	63.7 µM (inactive)	34.4 µM (inactive)
O=C(Cn1ccnc1[N+](=O)[O-])NCCO [ETANIDAZOLE]	> 100 µM (inactive)	> 100 µM (inactive)	> 100 µM (inactive)	> 100 µM (inactive)	> 100 µM (inactive)	> 100 µM (inactive)	> 100 µM (inactive)	> 100 µM (inactive)	> 100 µM (inactive)	> 100 µM (inactive)	> 100 µM (inactive)	> 100 µM (inactive)	> 100 µM (inactive)	> 100 µM (inactive)	> 100 µM (inactive)	> 100 µM (inactive)	> 100 µM (inactive)	> 100 µM (inactive)	> 100 µM (inactive)	56.5 µM (inactive)
Cc1nnc2c3c(-c4ccccc4)c(-c4ccccc4)oc3nc(N(C)C)n12	21.4 µM (inactive)	61.2 µM (inactive)	85.1 µM (inactive)	78.9 µM (inactive)	39.2 µM (inactive)	33.2 µM (inactive)	> 100 µM (inactive)	–	37.6 µM (inactive)	39.4 µM (inactive)	96.6 µM (inactive)	–	83.6 µM (inactive)	36.5 µM (inactive)	–	16.7 µM (inactive)	51.2 µM (inactive)	15.5 µM (inactive)	> 100 µM (inactive)	36.1 µM (inactive)
CNc1ncc(-c2nnnn2-c2ccccc2)c(CN(C)C)n1	> 100 µM (inactive)	> 100 µM (inactive)	> 100 µM (inactive)	> 100 µM (inactive)	> 100 µM (inactive)	> 100 µM (inactive)	> 100 µM (inactive)	> 100 µM (inactive)	> 100 µM (inactive)	> 100 µM (inactive)	> 100 µM (inactive)	> 100 µM (inactive)	> 100 µM (inactive)	> 100 µM (inactive)	> 100 µM (inactive)	> 100 µM (inactive)	> 100 µM (inactive)	> 100 µM (inactive)	> 100 µM (inactive)	> 100 µM (inactive)
O=[N+]([O-])c1ccc(C(c2c[nH]c3ccccc23)c2c[nH]c3ccccc23)cc1	10.9 µM (inactive)	11.7 µM (inactive)	–	14.7 µM (inactive)	10.5 µM (inactive)	11.5 µM (inactive)	16.8 µM (inactive)	7.31 µM (inactive)	22.6 µM (inactive)	11.1 µM (inactive)	10.7 µM (inactive)	14.4 µM (inactive)	0.653 µM (active)	13.3 µM (inactive)	13.5 µM (inactive)	4.5 µM (inactive)	11.8 µM (inactive)	4.8 µM (inactive)	15.7 µM (inactive)	3.03 µM (inactive)
COc1cc2c(cc1OCCCCCOc1cc3c(cc1OC)C(=O)N1CCC[C@H]1CN3)N=C[C@@H]1CCCN1C2=O	12.3 µM (inactive)	2.77 µM (inactive)	3.33 µM (inactive)	2.58 µM (inactive)	1.56 µM (inactive)	5.04 µM (inactive)	30.5 µM (inactive)	3.27 µM (inactive)	6.14 µM (inactive)	1.34 µM (inactive)	2.48 µM (inactive)	0.509 µM (active)	3.5 µM (inactive)	6.85 µM (inactive)	2.15 µM (inactive)	0.249 µM (active)	1.49 µM (inactive)	15 µM (inactive)	20 µM (inactive)	12.3 µM (inactive)
O=c1[nH]c(-c2ccccc2)nc2c1sc1nc3ccccc3n12	> 100 µM (inactive)	> 100 µM (inactive)	> 100 µM (inactive)	> 100 µM (inactive)	> 100 µM (inactive)	> 100 µM (inactive)	> 100 µM (inactive)	> 100 µM (inactive)	> 100 µM (inactive)	> 100 µM (inactive)	> 100 µM (inactive)	> 100 µM (inactive)	> 100 µM (inactive)	> 100 µM (inactive)	–	> 100 µM (inactive)	> 87.7 µM (inactive)	> 63.1 µM (inactive)	98.4 µM (inactive)	> 100 µM (inactive)
CC(C)(C)OC(=O)NC1CCCC1C(=O)C1=CCCC1 (stereo not given)	–	> 100 µM (inactive)	33.4 µM (inactive)	> 100 µM (inactive)	70.1 µM (inactive)	> 100 µM (inactive)	> 100 µM (inactive)	> 100 µM (inactive)	–	50.6 µM (inactive)	> 100 µM (inactive)	53.3 µM (inactive)	28.6 µM (inactive)	90.6 µM (inactive)	> 100 µM (inactive)	90.8 µM (inactive)	> 100 µM (inactive)	72.9 µM (inactive)	> 100 µM (inactive)	> 100 µM (inactive)
Cn1c(N)c(Cc2ccc(Cl)cc2)c(=O)[nH]c1=O	> 100 µM (inactive)	> 100 µM (inactive)	> 100 µM (inactive)	> 100 µM (inactive)	> 100 µM (inactive)	> 100 µM (inactive)	> 100 µM (inactive)	> 100 µM (inactive)	> 100 µM (inactive)	> 100 µM (inactive)	> 100 µM (inactive)	> 100 µM (inactive)	> 100 µM (inactive)	> 100 µM (inactive)	> 100 µM (inactive)	> 100 µM (inactive)	–	62.8 µM (inactive)	> 100 µM (inactive)	> 100 µM (inactive)
C=CCC1(OCc2ccccc2)C(=O)C(=O)OC1C1COC(C)(C)O1 (stereo not given)	> 100 µM (inactive)	> 100 µM (inactive)	–	> 100 µM (inactive)	> 100 µM (inactive)	> 100 µM (inactive)	> 100 µM (inactive)	> 100 µM (inactive)	> 100 µM (inactive)	> 100 µM (inactive)	> 100 µM (inactive)	> 100 µM (inactive)	> 100 µM (inactive)	> 100 µM (inactive)	> 100 µM (inactive)	> 100 µM (inactive)	> 100 µM (inactive)	> 100 µM (inactive)	> 100 µM (inactive)	> 100 µM (inactive)

— ChEMBL document CHEMBL1201862, “PubChem BioAssay data set” (2004)
